ChEMBL document CHEMBL3991601, “The target landscape of clinical kinase drugs” (Science, 2017)
Structures can show the parent of a compound that is named as a salt. The source made the active and inactive calls. Rule as the data show it, for most assays here: actives have a measured Kd and inactives only a lower limit.

How the values were obtained:
[1] = target: Insulin-like growth factor 1 receptor (Homo sapiens, UniProt P08069)
[2] = target: T1, Inhibitor of nuclear factor kappa-B kinase subunit epsilon (Homo sapiens, UniProt Q14164)
T1 sequence (Q14164 whole entry): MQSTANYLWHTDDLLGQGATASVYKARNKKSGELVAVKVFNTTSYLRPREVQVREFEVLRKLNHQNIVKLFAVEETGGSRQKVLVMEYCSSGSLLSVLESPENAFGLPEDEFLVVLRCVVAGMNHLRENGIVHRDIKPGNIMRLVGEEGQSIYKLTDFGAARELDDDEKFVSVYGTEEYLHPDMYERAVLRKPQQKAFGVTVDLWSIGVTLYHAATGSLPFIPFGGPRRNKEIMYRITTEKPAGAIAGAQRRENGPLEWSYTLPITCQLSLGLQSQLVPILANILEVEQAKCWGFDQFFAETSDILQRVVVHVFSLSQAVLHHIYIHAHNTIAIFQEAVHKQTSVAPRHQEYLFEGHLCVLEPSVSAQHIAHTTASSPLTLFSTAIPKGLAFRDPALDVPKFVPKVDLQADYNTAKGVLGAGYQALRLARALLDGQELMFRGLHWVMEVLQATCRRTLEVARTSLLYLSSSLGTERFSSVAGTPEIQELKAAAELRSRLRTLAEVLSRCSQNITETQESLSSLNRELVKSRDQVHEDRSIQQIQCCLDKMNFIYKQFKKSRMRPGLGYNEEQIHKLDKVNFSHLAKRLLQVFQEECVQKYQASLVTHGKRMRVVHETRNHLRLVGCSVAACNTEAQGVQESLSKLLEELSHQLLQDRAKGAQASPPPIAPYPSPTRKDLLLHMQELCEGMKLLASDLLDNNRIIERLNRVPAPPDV

[3] = target: Tyrosine-protein kinase ABL2 (Homo sapiens, UniProt P42684)
Chain of Tyrosine-protein kinase ABL2 (P42684 whole entry): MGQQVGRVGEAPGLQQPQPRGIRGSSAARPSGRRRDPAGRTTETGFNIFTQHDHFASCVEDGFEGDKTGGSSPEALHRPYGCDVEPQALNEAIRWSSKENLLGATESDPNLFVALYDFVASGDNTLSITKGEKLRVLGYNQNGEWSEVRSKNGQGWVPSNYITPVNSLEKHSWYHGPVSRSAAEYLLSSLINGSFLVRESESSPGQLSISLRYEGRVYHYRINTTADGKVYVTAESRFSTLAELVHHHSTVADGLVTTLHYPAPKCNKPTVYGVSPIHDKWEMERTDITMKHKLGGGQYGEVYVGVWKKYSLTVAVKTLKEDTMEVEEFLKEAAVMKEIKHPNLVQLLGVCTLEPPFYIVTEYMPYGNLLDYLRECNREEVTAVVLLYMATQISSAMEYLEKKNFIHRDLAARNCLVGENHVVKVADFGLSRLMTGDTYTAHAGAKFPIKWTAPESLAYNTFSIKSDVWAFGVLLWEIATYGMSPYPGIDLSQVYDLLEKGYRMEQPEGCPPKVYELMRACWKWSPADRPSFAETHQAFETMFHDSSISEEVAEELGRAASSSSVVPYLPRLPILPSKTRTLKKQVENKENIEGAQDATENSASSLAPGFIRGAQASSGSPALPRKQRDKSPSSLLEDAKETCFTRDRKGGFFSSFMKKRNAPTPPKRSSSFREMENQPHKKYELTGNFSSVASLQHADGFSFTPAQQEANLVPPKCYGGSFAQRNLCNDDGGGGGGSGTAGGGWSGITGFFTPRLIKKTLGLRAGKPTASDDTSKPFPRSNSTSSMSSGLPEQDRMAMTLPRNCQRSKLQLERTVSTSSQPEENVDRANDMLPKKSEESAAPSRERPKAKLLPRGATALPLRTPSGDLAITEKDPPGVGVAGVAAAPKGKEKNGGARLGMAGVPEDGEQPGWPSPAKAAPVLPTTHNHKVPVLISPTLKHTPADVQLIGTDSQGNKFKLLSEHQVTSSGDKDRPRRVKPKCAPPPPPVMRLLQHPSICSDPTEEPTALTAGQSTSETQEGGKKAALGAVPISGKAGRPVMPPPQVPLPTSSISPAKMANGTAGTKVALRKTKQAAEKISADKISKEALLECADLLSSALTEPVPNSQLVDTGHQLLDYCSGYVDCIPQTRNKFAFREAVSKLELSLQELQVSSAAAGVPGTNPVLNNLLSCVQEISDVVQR

[4] = target: T2, General transcription and DNA repair factor IIH helicase subunit XPD (Homo sapiens, UniProt P18074); conditions: read-out: Kd apparent; k-562, colo 205, sk-n-be(2) and mv-4-11
T2 sequence (P18074 whole entry): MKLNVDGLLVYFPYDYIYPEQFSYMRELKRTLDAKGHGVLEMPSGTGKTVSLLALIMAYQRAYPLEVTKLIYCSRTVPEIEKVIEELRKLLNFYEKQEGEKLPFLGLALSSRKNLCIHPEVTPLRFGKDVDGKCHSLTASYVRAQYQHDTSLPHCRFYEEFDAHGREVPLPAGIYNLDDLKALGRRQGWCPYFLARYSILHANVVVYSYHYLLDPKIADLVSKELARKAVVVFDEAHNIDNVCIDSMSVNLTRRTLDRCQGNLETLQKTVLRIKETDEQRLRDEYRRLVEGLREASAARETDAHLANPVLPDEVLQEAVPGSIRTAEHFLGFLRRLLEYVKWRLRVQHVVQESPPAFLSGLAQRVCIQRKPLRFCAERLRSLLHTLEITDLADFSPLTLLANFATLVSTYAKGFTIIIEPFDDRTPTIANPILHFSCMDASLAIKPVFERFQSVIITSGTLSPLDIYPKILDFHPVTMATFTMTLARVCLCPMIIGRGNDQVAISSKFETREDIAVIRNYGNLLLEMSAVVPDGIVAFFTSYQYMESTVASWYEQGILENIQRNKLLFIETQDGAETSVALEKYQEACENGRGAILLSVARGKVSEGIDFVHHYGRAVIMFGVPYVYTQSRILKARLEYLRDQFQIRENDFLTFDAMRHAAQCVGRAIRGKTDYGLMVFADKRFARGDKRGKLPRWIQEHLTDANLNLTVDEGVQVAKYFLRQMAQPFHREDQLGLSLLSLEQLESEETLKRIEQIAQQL

[5] = target: Serine/threonine-protein kinase SIK3 (Homo sapiens, UniProt Q9Y2K2)
Chain of Serine/threonine-protein kinase SIK3 (Q9Y2K2 whole entry): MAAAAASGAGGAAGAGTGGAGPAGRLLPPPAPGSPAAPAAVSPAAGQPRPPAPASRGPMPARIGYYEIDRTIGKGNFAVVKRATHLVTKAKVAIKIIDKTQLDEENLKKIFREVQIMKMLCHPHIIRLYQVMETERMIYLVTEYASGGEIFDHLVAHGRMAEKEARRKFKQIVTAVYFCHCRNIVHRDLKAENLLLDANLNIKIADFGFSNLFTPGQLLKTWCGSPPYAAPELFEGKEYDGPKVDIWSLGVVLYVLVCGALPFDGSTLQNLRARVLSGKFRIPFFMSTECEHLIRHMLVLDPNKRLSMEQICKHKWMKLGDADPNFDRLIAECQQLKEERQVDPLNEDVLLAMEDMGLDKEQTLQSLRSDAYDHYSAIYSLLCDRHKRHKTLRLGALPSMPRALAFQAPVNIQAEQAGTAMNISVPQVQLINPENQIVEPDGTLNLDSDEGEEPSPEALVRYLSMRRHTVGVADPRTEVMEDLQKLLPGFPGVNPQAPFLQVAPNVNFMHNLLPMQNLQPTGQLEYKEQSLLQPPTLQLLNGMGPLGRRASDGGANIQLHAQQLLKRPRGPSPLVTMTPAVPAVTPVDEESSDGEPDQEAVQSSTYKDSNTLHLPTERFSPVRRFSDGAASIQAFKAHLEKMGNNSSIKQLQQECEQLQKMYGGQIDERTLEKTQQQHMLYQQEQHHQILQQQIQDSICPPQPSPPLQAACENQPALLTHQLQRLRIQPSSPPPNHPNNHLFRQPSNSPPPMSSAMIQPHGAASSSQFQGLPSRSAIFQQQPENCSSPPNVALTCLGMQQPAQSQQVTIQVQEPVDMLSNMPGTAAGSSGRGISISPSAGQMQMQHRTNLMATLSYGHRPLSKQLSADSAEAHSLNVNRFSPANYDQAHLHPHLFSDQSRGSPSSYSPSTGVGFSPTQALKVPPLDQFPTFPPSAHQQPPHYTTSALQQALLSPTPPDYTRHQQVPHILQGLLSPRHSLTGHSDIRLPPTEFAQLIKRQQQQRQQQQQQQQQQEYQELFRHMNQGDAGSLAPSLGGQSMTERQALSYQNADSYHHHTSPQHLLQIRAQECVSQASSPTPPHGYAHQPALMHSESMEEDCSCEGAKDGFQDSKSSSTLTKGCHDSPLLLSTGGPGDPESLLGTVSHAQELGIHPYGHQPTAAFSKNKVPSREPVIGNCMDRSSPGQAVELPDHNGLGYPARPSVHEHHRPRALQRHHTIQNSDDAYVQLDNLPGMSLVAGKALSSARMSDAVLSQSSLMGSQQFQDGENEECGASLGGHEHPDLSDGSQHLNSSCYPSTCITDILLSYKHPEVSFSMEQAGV

[6] = target: cAMP-dependent protein kinase catalytic subunit gamma (Homo sapiens, UniProt P22612)
Chain of cAMP-dependent protein kinase catalytic subunit gamma (P22612 whole entry): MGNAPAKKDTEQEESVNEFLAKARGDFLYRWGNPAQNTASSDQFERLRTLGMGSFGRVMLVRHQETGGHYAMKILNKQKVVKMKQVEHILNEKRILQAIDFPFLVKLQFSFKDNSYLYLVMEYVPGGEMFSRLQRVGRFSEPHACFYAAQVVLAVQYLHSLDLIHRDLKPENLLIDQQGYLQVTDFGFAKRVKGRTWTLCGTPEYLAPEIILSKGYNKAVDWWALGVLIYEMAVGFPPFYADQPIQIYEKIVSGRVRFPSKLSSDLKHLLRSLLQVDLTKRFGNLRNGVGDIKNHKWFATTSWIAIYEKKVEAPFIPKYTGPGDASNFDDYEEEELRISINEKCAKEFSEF

[7] = target: T3, Serine/threonine-protein kinase ICK (Homo sapiens, UniProt Q9UPZ9)
T3 sequence (Q9UPZ9 whole entry): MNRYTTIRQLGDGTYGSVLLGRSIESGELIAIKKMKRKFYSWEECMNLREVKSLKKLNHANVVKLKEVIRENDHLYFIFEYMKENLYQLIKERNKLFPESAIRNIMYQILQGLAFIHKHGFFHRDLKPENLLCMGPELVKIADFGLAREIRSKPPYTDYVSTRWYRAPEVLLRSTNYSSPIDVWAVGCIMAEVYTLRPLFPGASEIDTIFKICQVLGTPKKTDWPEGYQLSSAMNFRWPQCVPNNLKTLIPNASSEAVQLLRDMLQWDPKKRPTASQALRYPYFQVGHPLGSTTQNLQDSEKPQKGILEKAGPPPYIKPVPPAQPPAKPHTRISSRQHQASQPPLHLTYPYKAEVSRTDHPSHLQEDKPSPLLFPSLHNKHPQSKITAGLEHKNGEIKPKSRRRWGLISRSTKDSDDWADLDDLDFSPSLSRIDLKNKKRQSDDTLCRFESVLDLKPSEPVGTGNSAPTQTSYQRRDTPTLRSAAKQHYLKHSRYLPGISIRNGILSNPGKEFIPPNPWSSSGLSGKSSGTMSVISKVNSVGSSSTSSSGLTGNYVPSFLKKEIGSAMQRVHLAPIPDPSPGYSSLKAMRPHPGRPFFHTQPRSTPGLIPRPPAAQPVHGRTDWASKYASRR
Also: in the data inactive means no Kd found up to 30 µM.

Chain of Insulin-like growth factor 1 receptor (P08069 31-736 limits assumed): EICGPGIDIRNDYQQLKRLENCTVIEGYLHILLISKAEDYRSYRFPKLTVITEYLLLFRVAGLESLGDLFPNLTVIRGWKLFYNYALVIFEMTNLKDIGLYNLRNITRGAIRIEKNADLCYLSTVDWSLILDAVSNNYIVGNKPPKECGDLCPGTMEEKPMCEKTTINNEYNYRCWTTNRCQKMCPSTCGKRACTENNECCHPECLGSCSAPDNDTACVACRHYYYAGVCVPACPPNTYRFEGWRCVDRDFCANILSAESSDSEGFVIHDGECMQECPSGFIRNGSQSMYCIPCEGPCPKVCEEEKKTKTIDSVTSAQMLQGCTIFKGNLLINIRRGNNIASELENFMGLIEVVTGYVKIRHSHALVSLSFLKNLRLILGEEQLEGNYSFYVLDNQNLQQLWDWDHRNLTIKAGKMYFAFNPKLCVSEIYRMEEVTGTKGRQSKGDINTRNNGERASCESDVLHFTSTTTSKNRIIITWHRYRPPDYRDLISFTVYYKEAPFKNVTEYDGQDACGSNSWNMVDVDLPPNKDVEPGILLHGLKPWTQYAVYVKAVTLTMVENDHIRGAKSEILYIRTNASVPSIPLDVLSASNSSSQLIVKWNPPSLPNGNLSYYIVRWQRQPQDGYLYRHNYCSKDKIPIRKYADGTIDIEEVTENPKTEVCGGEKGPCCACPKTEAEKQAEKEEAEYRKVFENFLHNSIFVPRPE
Chain of Insulin-like growth factor 1 receptor (P08069 741-1367 limits assumed): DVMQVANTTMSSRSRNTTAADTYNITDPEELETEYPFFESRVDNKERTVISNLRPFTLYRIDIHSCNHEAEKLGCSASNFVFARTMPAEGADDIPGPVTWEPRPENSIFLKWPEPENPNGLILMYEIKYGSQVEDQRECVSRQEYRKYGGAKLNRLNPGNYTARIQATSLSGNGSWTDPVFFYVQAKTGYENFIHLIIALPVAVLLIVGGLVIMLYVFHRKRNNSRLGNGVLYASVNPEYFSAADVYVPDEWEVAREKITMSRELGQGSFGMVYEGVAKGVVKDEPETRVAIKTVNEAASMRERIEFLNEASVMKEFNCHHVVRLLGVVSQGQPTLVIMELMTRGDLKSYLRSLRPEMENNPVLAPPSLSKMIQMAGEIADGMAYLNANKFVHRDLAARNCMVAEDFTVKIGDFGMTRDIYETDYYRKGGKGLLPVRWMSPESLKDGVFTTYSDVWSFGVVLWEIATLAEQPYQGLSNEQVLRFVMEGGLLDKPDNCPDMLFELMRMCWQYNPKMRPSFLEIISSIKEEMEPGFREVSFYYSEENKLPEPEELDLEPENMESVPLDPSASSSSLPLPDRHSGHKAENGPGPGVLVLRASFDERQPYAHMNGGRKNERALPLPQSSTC

| Compound | Kd [1] | Kd [2] | Kd [3] | Kd [4] | Kd [5] | Kd [6] | Kd [7] |
| --- | --- | --- | --- | --- | --- | --- | --- |
| C[C@H]1CNCCCN1S(=O)(=O)c1cccc2cncc(F)c12 | > 30 µM (inactive) | > 30 µM (inactive) | > 30 µM (inactive) | > 30 µM (inactive) | > 30 µM (inactive) | > 30 µM (inactive) | > 30 µM (inactive) |
| C=CC(=O)N1CCC[C@H](n2c(=O)n(-c3ccc(Oc4ccccc4)cc3)c3c(N)ncnc32)C1 | > 30 µM (inactive) | > 30 µM (inactive) | > 30 µM (inactive) | > 30 µM (inactive) | > 30 µM (inactive) | > 30 µM (inactive) | > 30 µM (inactive) |
| COCc1c(-c2ccc(NC(=O)Nc3cc(C(F)(F)F)ccc3F)c(F)c2)c2c(N)ncnn2c1CN1CCOCC1 | > 30 µM (inactive) | > 30 µM (inactive) | > 30 µM (inactive) | > 30 µM (inactive) | > 30 µM (inactive) | > 30 µM (inactive) | > 30 µM (inactive) |
| Cc1nc(NC(=O)N2CCC[C@H]2C(N)=O)sc1-c1ccnc(C(C)(C)C(F)(F)F)c1 [ALPELISIB] | > 30 µM (inactive) | > 30 µM (inactive) | > 30 µM (inactive) | > 30 µM (inactive) | > 30 µM (inactive) | 1.99 µM (active) | > 30 µM (inactive) |
| Cc1csc(-c2nnc(Nc3ccc(Oc4ncccc4-c4ccnc(N)n4)cc3)c3ccccc23)c1 [AMG-900] | > 30 µM (inactive) | > 30 µM (inactive) | > 30 µM (inactive) | > 30 µM (inactive) | > 30 µM (inactive) | > 30 µM (inactive) | > 30 µM (inactive) |
| O=C(Nc1c[nH]nc1-c1nc2cc(CN3CCOCC3)ccc2[nH]1)NC1CC1 [AT-9283] | > 30 µM (inactive) | 0.215 µM (active) | 1.08 µM (active) | > 30 µM (inactive) | 4.11 µM (active) | 0.003 µM (active) | > 30 µM (inactive) |
| C=CC(=O)Nc1cc2c(Nc3ccc(F)c(Cl)c3)ncnc2cc1C#CC(C)(C)N1CCN(C)CC1 [AV-412 FREE BASE] | > 30 µM (inactive) | > 30 µM (inactive) | > 30 µM (inactive) | > 30 µM (inactive) | > 30 µM (inactive) | > 30 µM (inactive) | > 30 µM (inactive) |
| COc1cc([C@@H]2c3cc4c(cc3[C@H](O)[C@H]3COC(=O)[C@@H]23)OCO4)cc(OC)c1OC [AXL-1717] | > 30 µM (inactive) | > 30 µM (inactive) | > 30 µM (inactive) | > 30 µM (inactive) | > 30 µM (inactive) | > 30 µM (inactive) | > 30 µM (inactive) |
| NC(=O)Nc1cc(-c2cccc(F)c2)sc1C(=O)N[C@H]1CCCNC1 [AZD-7762] | > 30 µM (inactive) | > 30 µM (inactive) | 0.899 µM (active) | > 30 µM (inactive) | 0.043 µM (active) | > 30 µM (inactive) | > 30 µM (inactive) |
| Cc1cc(C(=O)NOCCO)c(Nc2ccc(I)cc2F)n(C)c1=O [AZD-8330] | > 30 µM (inactive) | > 30 µM (inactive) | > 30 µM (inactive) | > 30 µM (inactive) | > 30 µM (inactive) | > 30 µM (inactive) | > 30 µM (inactive) |
| Cn1cnc2c(F)c(Nc3ccc(Br)cc3F)c(C(=O)NOCCO)cc21 [BINIMETINIB] | > 30 µM (inactive) | > 30 µM (inactive) | > 30 µM (inactive) | > 30 µM (inactive) | > 30 µM (inactive) | > 30 µM (inactive) | > 30 µM (inactive) |
| CCn1c(C(=O)N(C2CC2)C2CC2)cc2c3c(ncn3C)c(Nc3cc(C)n(C)n3)nc21 [BMS-911543] | > 30 µM (inactive) | > 30 µM (inactive) | > 30 µM (inactive) | > 30 µM (inactive) | > 30 µM (inactive) | > 30 µM (inactive) | > 30 µM (inactive) |
| COc1c(OCCCN2CCOCC2)ccc2c1N=C(NC(=O)c1cnc(N)nc1)N1CCN=C21 [COPANLISIB] | > 30 µM (inactive) | > 30 µM (inactive) | > 30 µM (inactive) |  | > 30 µM (inactive) | > 30 µM (inactive) | > 30 µM (inactive) |
| COCC(=O)NC/C=C/c1ccc2ncnc(Nc3ccc(Oc4ccc(C)nc4)c(C)c3)c2c1 [CP-724714] | > 30 µM (inactive) | > 30 µM (inactive) | > 30 µM (inactive) | > 30 µM (inactive) | > 30 µM (inactive) | > 30 µM (inactive) | > 30 µM (inactive) |
| C#Cc1cccc(Nc2ncnc3cc(OC)c(OCCCCCCC(=O)NO)cc23)c1 [CUDC-101] | > 30 µM (inactive) | > 30 µM (inactive) | > 30 µM (inactive) | > 30 µM (inactive) | > 30 µM (inactive) | > 30 µM (inactive) | > 30 µM (inactive) |
| CCS(=O)(=O)N1CCN(c2ccc(Nc3ncc(C(N)=O)c(NC4CC4)n3)cc2)CC1 [Cerdulatinib Hydrochloride] | > 30 µM (inactive) | 1.29 µM (active) | > 30 µM (inactive) | > 30 µM (inactive) | 13.6 µM (active) | > 30 µM (inactive) | > 30 µM (inactive) |
| O=C(Nc1nc2cccc(-c3ccc(CN4CCS(=O)(=O)CC4)cc3)n2n1)C1CC1 [FILGOTINIB] | > 30 µM (inactive) | > 30 µM (inactive) | > 30 µM (inactive) |  | > 30 µM (inactive) | > 30 µM (inactive) | > 30 µM (inactive) |
| Cc1cccc(-c2nn3c(c2-c2ccnc4ccc(C(N)=O)cc24)CCC3)n1 [GALUNISERTIB] | > 30 µM (inactive) | > 30 µM (inactive) | > 30 µM (inactive) | > 30 µM (inactive) | > 30 µM (inactive) | > 30 µM (inactive) | > 30 µM (inactive) |
| CNC(=O)c1nn(C)c2c1C(C)(C)Cc1cnc(Nc3ccc(N4CCN(C)CC4)cc3)nc1-2 [MILCICLIB] | > 30 µM (inactive) | 2.97 µM (active) | 3.75 µM |  | 0.266 µM (active) | > 30 µM (inactive) | 0.863 µM (active) |
| CN1CCN(CCOc2cc(OC3CCOCC3)c3c(Nc4c(Cl)ccc5c4OCO5)ncnc3c2)CC1 [SARACATINIB] | > 30 µM (inactive) | > 30 µM (inactive) |  | > 30 µM (inactive) | 4.85 µM (active) | > 30 µM (inactive) | > 30 µM (inactive) |
| CCS(=O)(=O)c1cccc(-c2cc(C(=O)NC3CCN(C)CC3)c(C)c3[nH]c4ncc(C)cc4c23)c1 [TAK-901] | > 30 µM (inactive) | > 30 µM (inactive) | 0.422 µM (active) |  | > 30 µM (inactive) | > 30 µM (inactive) | > 30 µM (inactive) |
